Counter-ions that a name gives are not always drawn.
Experiments:
[1] = tested on: collagen in cardiovascular tissues; assay: Mass of collagen in cardiovascular tissues after treatment; type: in vivo
Excerpt: (§1) Cardiovascular risk correlates more closely with the systolic and the pulse pressure than with the diastolic pressure. In diabetic patients, the cardiovascular risk profile of diabetic patients is strongly correlated to duration of diabetes, glycemic control and blood pressure. Structural matrix proteins contribute to the function of vessels and the heart, and changes in the physical behavior of cardiovascular walls are believed to be important determinants of circulatory function. In elderly individuals, the loss of compliance in the aorta leads to isolated systolic hypertension, which in turn expands the arterial wall and thereby diminishes the dynamic range of elasticity. Loss of compliance also results in the development of left ventricular hypertrophy.

Phase IIa clinical trial = type: in vivo, human
Excerpt: When the heart pumps blood into the vascular system, the ability of the arteries to expand helps to push blood through the body. When arteries become stiff, as they do in the natural process of aging, the ability of the arteries to expand is diminished and also has consequences for the heart. The heart has to work harder to pump the blood into the stiff arteries, and eventually hypertrophies (enlarges in size) to accomplish this. A hypertrophied heart is an inefficient pump, and is one of the disorders that leads to congestive heart failure. […] The potential clinical benefit of this is to lessen the effort that the heart must expend to push blood throughout the body. The effect is also believed to contribute to preventing hypertrophy and subsequent inefficiency of the heart, which inefficiency would contribute to congestive heart failure.
Atherosclerosis is a disease that involves deposition of blood lipids in plaque in the arteries throughout the body. In coronary arteries, accumulation of plaque progressively leads to reduced coronary flow, with occlusion of the arteries causing focal death of cardiac tissue (myocardial infarction, heart attack). If the amount of tissue that dies is large enough, death ensures. […] Reducing local deposits of plaque should eventually lessen the risk of myocardial infarction and death due to heart attacks.
Pulse pressure is the difference between systolic and diastolic blood pressure. In a young human, systolic pressure is typically 120 mm Hg and diastolic pressure is 80 mm Hg, resulting in a pulse pressure of 40 mm Hg. With age, in many individuals pulse pressure increases, largely due to the increase in systolic pressure that results from stiff vessel disease. In individuals with pulse pressure greater than 60 mm Hg there is an increased risk of death from cardiovascular morbidities.

TGFbeta = assay: In situ hybridization studies, TGFbeta; type: in vivo
Excerpt: as §1

[2] = Dog model for diabetes, ventricular elasticity; type: in vivo
Excerpt: as §1

Type IV collagen = assay: In situ hybridization studies, Type IV collagen; type: in vivo
Excerpt: as §1

[3] = In vivo studies of vascular stiffening in rodents, canines and primates
Excerpt: as §1

Which results are given for Cc1sc[n+](CC(=O)c2ccccc2)c1C [3-[2-phenyl-2-oxoethyl]-4,5-dimethyl-thiazolium salt]?
mass of collagen in cardiovascular tissues [1]: reduction in the mass of collagen in cardiovascular tissues; stiffness of arteries, as measured by the ratio of stroke volume (ml) to pulse pressure (mm Hg) (Phase IIa clinical trial; Phase IIa clinical trial): showed an ability to reverse the stiffness of arteries; amount of circulating triglycerides (lipids) (Phase IIa clinical trial; Phase IIa trial): increased the amount of circulating triglycerides; systolic blood pressure (Phase IIa clinical trial; Phase IIa trial, believed to be the primary cause of the pulse pressure decrease): lowering the systolic blood pressure; pulse pressure (Phase IIa clinical trial; Phase IIa trial, elderly patients with pulse pressures greater than 60 mm Hg): reduced pulse pressure in elderly patients with pulse pressures greater than 60 mm Hg in a statistically significant manner; expression of TGFbeta (TGFbeta): reduces the expression of both Type IV collagen and TGFbeta; end diastolic pressure (indicator of ventricular elasticity) [2]: returned to a value at about the mid-point between the disease impaired value and the value for control dogs; end diastolic volume (indicator of ventricular elasticity) [2]: returned to a value at about the mid-point between the disease impaired value and the value for control dogs; expression of Type IV collagen (Type IV collagen): reduces the expression of both Type IV collagen and TGFbeta; vascular stiffening [3]: substantially ameliorating vascular stiffening

Source: patent US20030027820A1, “Method for treating fibrotic diseases or other indications V” (Alteon, Inc., priority 2001, published 2003)
